Data reported in patent US11953435B2, “Zinc-responsive fluorophores” (Northwestern University, priority 2019, dated 2024).

Assay: Zinc dissociation constant, fluorescence titration in buffered EGTA-zinc solution
Type: binding
Details: for Kd: 200 nM probe, 50 mM HEPES, 0.1 M KNO3, pH 7.2, 10 mM EGTA; for affinity for zinc (in words): compared to other probes
Experimental: Aqueous solutions were prepared by using de-ionized water with resistivity […], obtained using a Milli-Q water purification system. In order to properly compare the photophysical properties of ZincBY-2, ZincBY-3, and ZincBY-4 to ZincBY-1, the photophysical properties of ZincBY-1 we remeasured. […] Stock solutions of ZincBY-1, ZincBY-2, ZincBY-3, and ZincBY-4 were prepared at concentrations of 5 mM and stored at −20° C. in aliquots that were used immediately after thawing for each experiment. Unless otherwise stated, all spectroscopic methods were conducted in aqueous buffer containing 50 mM HEPES (pH 7.2) and 0.1 M KNO3. UV-visible spectra were acquired on a PerkinElmer Lambda 650 UV/Vis spectrophotometer using quartz cuvettes from Starna (1 cm path length, 10 cm path length used in extinction coefficient and quantum yield determination). Fluorescence spectra were acquired using a PerkinElmer LS 55 fluorescence spectrophotometer. For measurements containing zinc, 99.0% ZnNO3 hexahydrate (final concentration 5 μM) was used. For experiments analyzing apo probes, N,N,N′,N′-Tetrakis(2-pyridylmethyl)ethylenediamine (TPEN) (final concentration 5 μM) was added to solution. Quantum Yield and Extinction Coefficient Determination. Quantum yields for apo and holo ZincBY-1, ZincBY-2, ZincBY-3, and ZincBY-4 were determined by plotting absorbance vs. fluorescence intensity of solutions containing ZincBY-1, ZincBY-2, ZincBY-3, or ZincBY-4 at probe concentrations ranging from 50-250 nM. Serial dilution was used to make solutions at different concentrations. Fluorescein dissolved in 0.1 N NaOH was used as the quantum yield standard, using a literature-determined quantum yield of 0.95.^3 For all fluorophore solutions, fluorescence excitation was set at 490 nm and fluorescence emission was integrated from 510 nm to 650 nm. Zinc Dissociation Constant. Fluorescence spectra were recorded using zinc probes (ZincBY-1, ZincBY-2, ZincBY-3, or ZincBY-4; 200 nM) and ZnSO4 (various concentrations). The solutions were equilibrated in the dark for 1 h prior to measurement. The concentration of ZnSO4 was varied from 1 μM to 9 mM in buffer solution (50 mM HEPES and 0.1 M KNO3, and pH 7.2) containing 10 mM EGTA. Free Zn^2+ was calculated according to a previously reported method (Ref. B4; incorporated by reference in its entirety). Data was fit to the following one-site binding equation: F=(FminKd+Fmax[Zn^2+])/(Kd+[Zn^2+]) pH Response. The fluorescence spectra of zinc probes (ZincBY-2, ZincBY-3, or ZincBY-4; 200 nM) wasere measured at various pH values (4.5-11). The following buffers were used at 50 mM concentration with 0.1 M KNO3: NaOAc/AcOH (pH 4.0-4.5), MES (pH 5.0-6.5), HEPES (pH 7.0-8.0), CHES (pH 8.5-9.5), CAPS (pH 10.0-11.0). Metal Ion Response. The fluorescence spectra of zinc probes (ZincBY-2, ZincBY-3, or ZincBY-4; 200 nM) were measured in the presence an excess of metal ion including 1 mM KNO3, 1 mM NaNO3, 1 mM CaSO4, 1 mM MgSO4, 15 μM MnSO4, 15 μM (NH4)2Fe(SO4)2, 15 μM NH4Fe(SO4)2, 15 μM CoSO4, 15 μM NiSO4, 15 μM CuSO4, 15 μM [Cu(CH3CN)4]PF6, 15 μM CdSO4, 15 μM Hg(NO3)2, 15 μM Pb(NO3)2, or 15 μM ZnSO4. The fluorescence spectra were compared to that of ZincBY-2 (200 nM), ZincBY-3 (200 nM), or ZincBY-4 (200 nM) in the presence of 10 μM TPEN. Determination of octanol-water partition coefficients (log P). A log P value for each probe was determined by agitating nanomolar solutions of each probe in a 1:1 mixture of HEPES buffer and 1-octanol. Solutions were allowed to settle for 1 h and then the fluorescence intensity of each phase was measured. Standard curves of the fluorescence of known concentrations of probes in both solutions were used to determine concentrations.

SMILES	Kd [nM]	affinity for zinc weaker than that of ZincBY-1 (relative to ZincBY-1)	affinity for zinc (in words)	affinity for zinc higher than that of ZincBY-1 (relative to ZincBY-1) [fold]
COc1ccc2n1[B-](F)(F)[N+]1=C(N(CCN(Cc3ccccn3)Cc3ccccn3)Cc3ccccn3)C=CC1=C2c1c(C)cc(C)cc1C [ZincBY-1, reference compound]	3.72 ± 0.87	–	–	–
Cc1cc(C)c(C2=C3C=CC(OCCN=[N+]=[N-])=[N+]3[B-](F)(F)n3c2ccc3N(CCN(Cc2ccccn2)Cc2ccccn2)Cc2ccccn2)c(C)c1 [ZincBY-2, N1-(7-(2-azidoethoxy)-5,5-difluoro-10-mesityl-5H-4λ4,5λ4-dipyrrolo[1,2-c:2′,1′-f][1,3,2]diazaborinin-3-yl)-N1,N2,N2-tris(pyridin-2-ylmethyl)ethane-1,2-diamine]	18.1 ± 2.6	five-fold weaker	–	–
Cc1cc(C)c(C2=C3C=CC(OCCN)=[N+]3[B-](F)(F)n3c2ccc3N(CCN(Cc2ccccn2)Cc2ccccn2)Cc2ccccn2)c(C)c1 [ZincBY-3, N1-(7-(2-aminoethoxy)-5,5-difluoro-10-mesityl-5H-4λ4,5λ4-dipyrrolo[1,2-c:2′,1′-f][1,3,2]diazaborinin-3-yl)-N1,N2,N2-tris(pyridin-2-ylmethyl)ethane-1,2-diamine]	0.0977 ± 0.0261	–	sub-nanomolar	38
CC(=O)NCCOc1ccc2n1[B-](F)(F)[N+]1=C(N(CCN(Cc3ccccn3)Cc3ccccn3)Cc3ccccn3)C=CC1=C2c1c(C)cc(C)cc1C [ZincBY-4, N-(2-((7-((2-(bis(pyridin-2-ylmethyl)amino)ethyl)(pyridin-2-ylmethyl)amino)-5,5-difluoro-10-mesityl-5H-5λ4,6λ4-dipyrrolo[1,2-c:2′,1′-f][1,3,2]diazaborinin-3-yl)oxy)ethyl)acetamide]	0.229 ± 0.0184	–	sub-nanomolar	–
